In patent US20240226025A1, “POLYNUCLEOTIDES ENCODING METHYLMALONYL-COA MUTASE FOR THE TREATMENT OF METHYLMALONIC ACIDEMIA” (ModernaTX, Inc., priority 2021, published 2024):

System: CD-1 mice
Experiment: Expression of luciferase induced by lipid nanoparticles in mice (bioluminescence)
Type: in vivo, mouse
Details: luciferase mRNA LNP
Method: To further assess potency of expression and metabolic stability of lipids of the disclosure, expression of luciferase was measured following administration to rodents of a nanoparticle of the disclosure comprising an mRNA containing luciferase.
Lipid nanoparticles including DSPC as a phospholipid, cholesterol as a structural lipid, Compound I as a PEG lipid, an ionizable amino lipid of Formula (II), and an mRNA encoding luciferase were intravenously administered to CD-1 mice and Sprague Dawley rats. […]

## CCCCCCCCC(CCCCCCCC)OC(=O)CCCCCCCN(CCCCCCCC(=O)OCC(CCCC)CCCCCCC)CCCNc1c(NC)c(=O)c1=O (stereo not shown) [Compound 10]
  Total Whole Body Flux @ 6 h (p/s): 4.6E+09 p/s
